Each compound was assayed on human platelets (aggregation induced by PAF) (assay: inhibition of PAF-induced blood platelet aggregation in vitro). Conditions: Homo sapiens, read-out: IC50 (concentration for 50% inhibition of aggregation).
Format: cell-based
Procedure: To determine the PAF-antagonistic action of substances, use was made of the aggregation of human platelets induced in vitro by PAF. To obtain platelet-rich plasma (PRP), blood is taken from an uncompressed vein using a plastic syringe containing 3.8% strength sodium citrate solution. The ratio between sodium citrate solution and blood is 1:9. After careful mixing, the citrated blood is centrifuged at 150×g (1200 rpm) for 20 minutes. The platelet aggregation is measured by the method worked out by Born and Cross (G. V. R. Born and M. J. Cross, J. Physiol. 168, 178 (1963)), with PAF being added to the continuously stirred PRP to initiate the aggregation. The test substance is added in a volume of 10 ul in each case 2-3 minutes before initiation of the aggregation. The solvents used are either distilled water, ethanol and/or dimethyl sulphoxide. Blanks contain corresponding volumes of these solvents. After the initial absorption has been recorded (2-3 minutes), aggregation is induced with PAF (5×10^-8 M). To assess the effects of substances, use is made of the maximum of the first aggregation wave. The maximum absorption rate (=maximum aggregation×100%) induced by PAF is, in each case, simultaneously checked in a parallel mixture (=blank in one channel of the two-channel aggregometer) for each test mixture (second channel) and used as the 100% value. The aggregation obtained under the influence of the test substance is […].

| SMILES | IC50 [nM] |
| --- | --- |
| Cc1nnc2n1-c1ccc(Cl)cc1C(c1ccccc1Cl)=NC2 [Triazolam, triazolam, reference compound] | 9000 |
| COC(=O)CCNC(=O)c1ccc2c(c1)C(c1ccccc1Cl)=NCc1ncc(C)n1-2 [compound 2] | 900 |
| Cc1nnc2n1-c1ccc(C(=O)NCC(=O)N3CCOCC3)cc1C(c1ccccc1Cl)=NC2 [compound 4] | 700 |
| COC(=O)C[C@H](NC(=O)c1ccc2c(c1)C(c1ccccc1Cl)=NCc1nnc(C)n1-2)C(=O)OC [compound 5] | 1200 |
| Cc1nnc2n1-c1ccc(C(=O)NC3CCSC3=O)cc1C(c1ccccc1Cl)=NC2 (stereo not drawn) [compound 11] | 3500 |
| Cc1nnc2n1-c1ccc(CC(=O)NCC(=O)N3CCOCC3)cc1C(c1ccccc1Cl)=NC2 [compound 12] | 1100 |
| COC(=O)[C@@H](CCSC)NC(=O)c1ccc2c(c1)C(c1ccccc1Cl)=NCc1nnc(C)n1-2 [compound 15] | 900 |
| CCN(CC)C(=O)[C@H](CC(C)C)NC(=O)c1ccc2c(c1)C(c1ccccc1Cl)=NCc1nnc(C)n1-2 [compound 16] | 400 |
| Cc1nnc2n1-c1ccc(C(=O)N3CCC[C@H]3C(=O)N3CCOCC3)cc1C(c1ccccc1Cl)=NC2 [compound 18] | 8100 |
| Cc1nnc2n1-c1ccc(C(=O)N[C@H](C(=O)NC(C)C)C(C)C)cc1C(c1ccccc1Cl)=NC2 [compound 27] | 700 |
| COc1nnc2n1-c1ccc(C(=O)NCC(=O)N3CCOCC3)cc1C(c1ccccc1Cl)=NC2 [compound 33] | 2500 |
| C[C@H](NC(=O)c1ccc2c(c1)C(c1ccccc1Cl)=NCc1nnc(C3CC3)n1-2)C(=O)N1CCCC1 [compound 35] | 900 |

Same assay, conditions: read-out: IC50 (concentration for 50% inhibition of aggregation), Table A, human PRP, PAF 5×10^-8 M

| SMILES | IC50 [nM] |
| --- | --- |
| Cc1nnc2n1-c1ccc(C(=O)NCC(=O)N3CCOCC3)cc1C(c1ccccc1Cl)NC2 (stereo not drawn) [compound 21] | 1900 |
| Cc1nnc2n1-c1sc(C(=O)N(C)CC(=O)N3CCOCC3)cc1C(c1ccccc1Cl)=NC2 [compound 28] | 1900 |
| Cc1nnc2n1-c1sc(CCC(=O)NCC(=O)N3CCOCC3)cc1C(c1ccccc1Cl)=NC2 [compound 48] | 600 |
